Source: PubChem BioAssay AID1949 (Southern Research Institute, 2009)
Values after ≈ are worked out from the molar mass of the structure shown. Inconclusive results are not listed. Active and inactive are the calls of the source. No rule for the calls is given here.

Tested on: M. tuberculosis H37Rv growth inhibition
Assay: Confirmatory growth inhibition assay against Mycobacterium tuberculosis H37Rv, potency (AID 1949);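 also: bacteria grown 7 days with compound before Alamar blue readout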

SMILES	IC50
NC(N)=Nc1nc(-c2ccccc2)c2cc(F)ccc2n1	7.61 µg/mL (≈ 27.1 µM)
CC1=CC(C)(C)Nc2ccc(OC(=O)c3cccs3)cc21	3.02 µg/mL (≈ 10.1 µM)
COC(=O)COc1ccc2c(=O)c(Oc3cnn(-c4ccccc4)c3)c(C)oc2c1	3.89 µg/mL (≈ 9.57 µM)
Clc1ccc(OCCn2ccnc2)c2ccccc12	3.99 µg/mL (≈ 14.6 µM)
CCOC(=O)c1ccc(NC(=O)CSc2nnc(-c3ccco3)c(-c3ccco3)n2)cc1	19.7 µg/mL (≈ 43.6 µM)
Cc1ccc(/C=C/[N+](=O)[O-])cc1Br	239 µg/mL (≈ 987 µM)
O=C(CSc1nnc(-c2ccccc2Cl)o1)Nc1ccccn1	> 50 µg/mL (inactive)
O=C(Nc1ccc([N+](=O)[O-])cc1)c1nc[nH]c1C(=O)NCc1ccccc1	7.92 µg/mL (≈ 21.7 µM)
COc1ccccc1-c1coc2cc(OCC(=O)OC3CCCCC3)ccc2c1=O	0.24 µg/mL (≈ 0.588 µM)
COc1ccc(-c2cc(C(=O)Nc3ccc(C(=O)N4CCOCC4)cc3)c3cc(C)ccc3n2)cc1	> 50 µg/mL (inactive)
O=C(COc1ccc(Cl)cc1)NCCC12CC3CC(CC(C3)C1)C2	43.5 µg/mL (≈ 125 µM)
O=C(CN1CCN(CCN2C(=O)c3cccc4cccc(c34)C2=O)CC1)c1ccc(Cl)cc1	6.6 µg/mL (≈ 14.3 µM)
CCOC(=O)COc1ccc2c(C)c(CC(=O)OC)c(=O)oc2c1C	7.36 µg/mL (≈ 21.1 µM)
CCOC(=O)c1c(NC(=O)CN2CCN(CCO)CC2)sc2c1CCC(C)C2 (stereo not given)	7.17 µg/mL (≈ 17.5 µM)
CCOC(=O)c1ccc(NC(=S)NC(=O)CCc2ccccc2)cc1	1.76 µg/mL (≈ 4.94 µM)
C=CCCCCCCCCC(=O)Nc1ccccc1C	8.62 µg/mL (≈ 31.5 µM)
Cc1sc2ncn(C(C)C(=O)OC3CCCCC3)c(=O)c2c1C (stereo not given)	1.11 µg/mL (≈ 3.32 µM)
CC(=O)NC(=S)NNC(=O)c1ccc(C(C)(C)C)cc1	0.29 µg/mL (≈ 0.988 µM)
CC(=O)c1ccc(NC(=O)CSc2ccc(F)cc2)cc1	7.95 µg/mL (≈ 26.2 µM)
Cc1ccc(-n2c(=O)oc3ccc(Cl)cc3c2=O)cc1Cl	1.08 µg/mL (≈ 3.35 µM)

SMILES	IC50
Nc1ncnc(Sc2nc3ccccc3s2)c1[N+](=O)[O-]	0.5 µg/mL (≈ 1.64 µM)
COc1cc(CNCc2cccnc2)ccc1OCc1ccc(Cl)cc1Cl	8.24 µg/mL (≈ 20.4 µM)
COC(=O)COc1ccc(NC(=O)CSc2ccc(Cl)cc2)cc1	0.77 µg/mL (≈ 2.1 µM)
COc1cc(/C=C/[N+](=O)[O-])ccc1OC(=O)c1ccco1	22.6 µg/mL (≈ 78.1 µM)
CC(C)COc1ccc(-c2nn(-c3ccccc3)cc2C(=O)Nc2nccs2)cc1	0.19 µg/mL (≈ 0.454 µM)
O=C(CSc1ccc(Br)cc1)Nc1ccc([N+](=O)[O-])cc1	23.6 µg/mL (≈ 64.2 µM)
Cc1ccc(OCC(=O)NC23CC4CC(CC(C4)C2)C3)cc1C	3.77 µg/mL (≈ 12 µM)
N#C/C(=C/c1ccc([N+](=O)[O-])o1)c1ccc(C#N)cc1	2.96 µg/mL (≈ 11.2 µM)
Cc1ccc(OCCCCNCCc2ccccc2)c(C)c1	9.13 µg/mL (≈ 30.7 µM)
Oc1ccc(Br)cc1C1=NNC(c2ccc(F)cc2)C1 (stereo not given)	2.89 µg/mL (≈ 8.62 µM)
O=[N+]([O-])c1ccccc1S(=O)(=O)Nc1ccc(S(=O)(=O)Nc2nccs2)cc1	3.8 µg/mL (≈ 8.63 µM)
Cc1cccnc1NC(=S)Nc1ccc(Cl)c(Cl)c1	8.34 µg/mL (≈ 26.7 µM)
COc1ccc(NC(=O)CC23CC4CC(CC(C4)C2)C3)cc1[N+](=O)[O-]	3.05 µg/mL (≈ 8.86 µM)
COC(=O)COc1ccc(-c2ccccc2)cc1	0.22 µg/mL (≈ 0.908 µM)
CCCc1cc(C(N)=O)c(NC(=O)c2ccoc2C)s1	4.4 µg/mL (≈ 15 µM)
Clc1ccc(SCCCn2ccnc2)cc1	2.36 µg/mL (≈ 9.34 µM)
N#Cc1c(NC(=S)NC(=O)c2ccc(Cl)cc2Cl)sc2c1CCCCC2	3.36 µg/mL (≈ 7.92 µM)
COc1ccccc1NC(=O)CSc1nc(-c2ccccc2)cc(C(F)(F)F)c1C#N	1.63 µg/mL (≈ 3.68 µM)
C=CCNCCCOc1ccc(Cl)cc1C(C)(C)C	6.96 µg/mL (≈ 24.7 µM)
CCOC(=O)Cn1nnc(-c2ccc(OCc3ccccc3F)cc2)n1	0.28 µg/mL (≈ 0.786 µM)

SMILES	IC50
Nc1c(C(=O)NCc2ccc(Cl)cc2)sc2nc3c(c(C(F)(F)F)c12)CCC3	9.45 µg/mL (≈ 22.2 µM)
CCc1ccc(S(=O)(=O)Nc2ccc(I)cc2)cc1	11.7 µg/mL (≈ 30.1 µM)
Cc1ccc(OCC(O)CN2CCc3ccccc3C2)c(C(C)(C)C)c1 (stereo not given)	5.9 µg/mL (≈ 16.7 µM)
NC(=O)CSc1nnc(SCc2cccc3ccccc23)s1	15.1 µg/mL (≈ 43.5 µM)
O=C(CSc1ccc(Cl)cc1)Nc1ccc(Br)cn1	3.02 µg/mL (≈ 8.44 µM)
CCOC(=O)COc1ccc2c(=O)c(-c3ccccc3F)coc2c1C	< 0.1 µg/mL
O=C(Cc1ccc(Cl)cc1)Oc1cccc2cccnc12	> 50 µg/mL (inactive)
N#Cc1ccc(Sc2nc3ccccc3o2)c([N+](=O)[O-])c1	> 50 µg/mL (inactive)
CCCCOC(=O)COc1ccc2c(=O)c(Oc3ccc(OCC)cc3)c(C)oc2c1	1.59 µg/mL (≈ 3.73 µM)
Cc1ccc(C(C)C)c(OCCCCn2ccnc2)c1	2.22 µg/mL (≈ 8.15 µM)
COc1ccc(C(=O)N=Nc2c(O)[nH]c3ccc(Br)cc23)cc1	19.9 µg/mL (≈ 53.1 µM)
O=C(Nc1ccc(Cl)c(C(F)(F)F)c1)C1CCN(C(=O)c2ccc(Br)cc2)CC1	7.21 µg/mL (≈ 14.7 µM)
O=C(Nc1ccc([N+](=O)[O-])cc1)N1CCN(c2cccc(C(F)(F)F)c2)CC1	1.56 µg/mL (≈ 3.96 µM)
N#Cc1c(SCC(=O)OCc2ccccc2)nsc1SCC(=O)OCc1ccccc1	8.73 µg/mL (≈ 18.6 µM)
COC(=O)c1ccc(NC(=O)CSc2ccc(F)cc2)cc1	4.02 µg/mL (≈ 12.6 µM)
C#CCSc1nnc(-c2ccc(Br)cc2)o1	0.94 µg/mL (≈ 3.18 µM)
O=C(Nc1ccc(Cl)c(Cl)c1)Nc1ccc(Br)cc1F	0.37 µg/mL (≈ 0.979 µM)
NC(N)=N/N=C/c1ccc(OCc2ccc(Cl)cc2Cl)cc1	11 µg/mL (≈ 32.6 µM)
COC(=O)c1ccc(COC(=O)c2ccccc2Cl)cc1	1.69 µg/mL (≈ 5.55 µM)
O=C(NC(=S)Nc1ccccc1N1CCCC1)c1cccc2ccccc12	0.36 µg/mL (≈ 0.959 µM)
